PMC11266677, “Vitamin B5 metabolism is essential for vacuolar and mitochondrial functions and drug detoxification in fungi” (Communications Biology, 2024)

Assays:
[1] = molecular target: T1, Acs1 (acetyl CoA synthetase) (Saccharomyces cerevisiae, UniProt Q01574); experiment: hydroxylamine-coupled acetyl CoA synthetase assay; […] inhibition at […]; type: biochemical
T1 construct: purified S. cerevisiae acetyl CoA synthetase (Sigma, A1765)

[2] = molecular target: T1, Acs1 (acetyl CoA synthetase); experiment: hydroxylamine-coupled acetyl CoA synthetase assay (acethydroxamic acid, OD540); type: biochemical

T1 sequence (Q01574 whole entry): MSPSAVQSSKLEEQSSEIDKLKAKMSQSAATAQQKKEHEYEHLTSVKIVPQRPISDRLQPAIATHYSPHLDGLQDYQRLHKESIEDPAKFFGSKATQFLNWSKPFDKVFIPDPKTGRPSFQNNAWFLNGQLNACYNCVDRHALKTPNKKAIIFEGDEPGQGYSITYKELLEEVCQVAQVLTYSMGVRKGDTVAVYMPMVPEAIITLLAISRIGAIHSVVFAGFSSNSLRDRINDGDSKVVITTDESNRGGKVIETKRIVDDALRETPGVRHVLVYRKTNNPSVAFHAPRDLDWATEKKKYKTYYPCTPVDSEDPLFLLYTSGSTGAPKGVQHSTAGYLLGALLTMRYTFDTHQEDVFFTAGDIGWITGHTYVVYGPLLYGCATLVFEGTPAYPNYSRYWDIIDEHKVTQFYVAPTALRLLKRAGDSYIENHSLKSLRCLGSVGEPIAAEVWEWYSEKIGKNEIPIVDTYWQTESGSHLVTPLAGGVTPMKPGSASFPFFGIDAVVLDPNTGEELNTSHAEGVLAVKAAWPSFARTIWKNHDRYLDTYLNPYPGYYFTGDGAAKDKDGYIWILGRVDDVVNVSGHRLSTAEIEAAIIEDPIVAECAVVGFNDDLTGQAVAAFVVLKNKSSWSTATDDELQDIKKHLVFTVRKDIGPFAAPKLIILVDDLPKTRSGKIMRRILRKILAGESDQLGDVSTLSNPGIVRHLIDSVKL

`CC(C)c1ccc(CC(=O)N2CCN(c3ccc(C#N)nn3)CC2)cc1` [PZ-2891] showed an inhibition at 18.8 µM [1] of 32.7%.
For `NCC(=O)Nc1ccc(-n2nc(C(F)(F)F)cc2-c2ccc3c(ccc4ccccc43)c2)cc1` [AR-12], the IC50 [2] was ~18 µM.
